This note sets out measurements from patent publication US20240197761A1, “FUCOSYLATION AND IMMUNE MODULATION IN CANCER” (H. LEE MOFFITT CANCER CENTER AND RESEARCH INSTITUTE, INC., priority 2021, published 2024).

In this test the test system is SW1 tumors (shNT, shH2K1, shEB1, EB1 WT or N46G). Put plainly: H2K1/EB1 knockdown and glyco-fucomutant EB1 reconstitution mouse model. The format is in vivo, C3H/HeN mice. The source says:
All animals were housed at the Vincent A. Stabile Research building animal facility at H. Lee Moffitt Cancer Center & Research Institute, which is fully accredited by the Association for Assessment and Accreditation of Laboratory Animal Care International (AAALAC, #434), and are managed in accordance with the Guide for the Care and Use of Laboratory Animals (“The Guide”), the Animal Welfare Regulations Title 9 Code of Federal Regulations Subchapter A, “Animal Welfare”, Parts 1-3 (AWR), the Public Health Service Policy on Humane Care and Use of Laboratory Animals (PHS Policy), and by the USF Institutional Animal Care and Use Committee's Principles and Procedures of Animal Care and Use (IACUC Principles). The experiments and protocols detailed in this study received institutional approval by the Moffitt IACUC (RIS00001625). Four-to-six-week-old female C3H/HeN and male C57BL6 mice were purchased from Charles Rivers Laboratories for the indicated experiments. Four-to-six-week-old male NSG mice from the Lau laboratory breeding colony were used for the indicated experiments. Power calculations were used to determine mouse cohort sizes to detect significant changes in tumor sizes. In general, 10 mice per indicated cohort to accommodate for incidental loss of mice due to issues beyond our control (e.g., incidental tumor ulceration that required exclusion from the study). Mouse tumor volumes were measured using length, width and depth divided by 2. At each experimental endpoint, mice were humanely euthanized using CO2 inhalation in accordance to the American Veterinary Medical Association guidelines. […] For all mouse models, 1×10^6 melanoma cells were injected subcutaneously in the right hind flanks of each mouse. Between 7-14 days, when the tumor volumes reached ˜150 mm^3, the mice were either supplemented with or without 100 mM L-fucose (Biosynth (Oak Terrace, IL)) via drinking water, which was provided ad libitum. When the tumors reached ˜2 cm^3, the animals were sacrificed, and the tumors either processed for flow cytometric profiling or for histological analysis as indicated. […]

Each structure is given as a SMILES string.

With `C[C@H](O)[C@@H](O)[C@@H](O)[C@H](O)C=O` [L-fucose], the “L-fuc-triggered tumor suppression and induction of total itICs” value (EB1 knockdown) is on record as “completely abolished”. Further, the “control (shNT) tumor growth” value (non-targeting shRNA SW1 tumors) is “impaired”. Further, the “L-fuc-induced TIL and tumor growth suppression after EB1 knockdown and reconstitution” value (shEB1 tumors reconstituted with EB1 WT or N46G) was “rescued by reconstitution with only WT but not glyco-fucomutant EB1”.
